Data on four compounds can be found in paper PMC7278695, “Dual SMO/BRAF Inhibition by Flavonolignans from Silybum marianum” (Antioxidants, 2020).

One assay concerns the target T1, BRAF V600E kinase (Homo sapiens, UniProt P15056, V600E).
T1 construct: purchased BPS Bioscience #48688
Kind of assay: BRAF (V600E) Kinase Assay Kit, Kinase-Glo luminescence. The assay is classed as biochemical. As to conditions: 45 min at 30 °C. Here is the method: The activities of silybins and dehydrosilybins were tested using a commercial BRAF (V600E) (serine/threonine-protein kinase B-raf, V600E mutant) Kinase Assay Kit (#48688, BPS Bioscience, San Diego, CA, USA). Briefly, the BRAF (V600E) enzyme was incubated for 45 min at 30 °C with five different concentrations of each tested compound in logarithmic dilutions (1000, 100, 10, 1, and 0.1 µM). The reaction mixture was prepared following the instructions of the producer. The luminescence of the product of the enzyme activity was measured with the Kinase-Glo MAX Kit (#V6071, Promega, Madison, WI, USA) at a microplate luminometer (Synergy Multi-Mode Reader, BioTek, Winooski, VT, USA). Higher luminescent signal corresponded to […] enzyme activity. […] The reaction mixture without the test inhibitor represented the positive control, whereas the mixture without the test inhibitor and without the enzyme was used as blank.
The experiments for evaluation of the BRAF inhibition and cytotoxicity were performed in triplicate. The IC50 values were calculated by the BfROpenLab’s non-linear regression nodes in the KNIME analytics platform with the constant slope model.

Assay [1] relates to A-375 skin melanoma malignant cells with BRAF V600E mutation. Description: MTT cytotoxicity assay, A-375. As to conditions: Homo sapiens, 72 h, read-out: IC50 (95% Confidence Interval), A-375. The assay is classed as cell-based. As to the method: (§1) The cytotoxic activity of the tested compounds was evaluated on non-tumorigenic human keratinocytes (HaCaT, #300493), skin melanoma malignant cells with BRAF V600E mutation (A-375, #300110), and skin epidermoid carcinoma cells (A-431, #300112), all purchased from CLS Cell Lines Service (Eppelheim, Germany). The cell lines were maintained in DMEM (#DMEM-HPA, Capricorn®, Ebsdorfergrund, Germany) supplemented with 10% fetal bovine serum (#FBS-HI-12A, Capricorn®, Ebsdorfergrund, Germany) and 4 mM L-glutamine (#G7513, Merck (Sigma-Aldrich), Germany) and incubated under standard conditions (5% CO2, 37 °C, 90%-95% humidity). The experiments were performed between passages 4 and 15 whereby the cells were sub-cultured every 4th day by splitting 1:8, according to the protocol of the biobank. Briefly, the cell cultures were rinsed with PBS without calcium and magnesium (PBS, #D8537, Merck (Sigma-Aldrich), Germany) and incubated for 8-10 min with accutase (#ACC-1B, Capricorn®, Ebsdorfergrund, Germany) as a detachment agent. After centrifugation, the cells were counted with trypan blue (0.4% solution, #T8154, Merck (Sigma-Aldrich), Germany). The antiproliferative effects of SilA, SilB, […], and DHSilB were tested using the MTT-dye (3-(4,5-dimethylthiazol-2-yl)-2,5-diphenyltetrazolium bromide) assay according to ISO 10993-5-2009, Annex C [26]. Briefly, the cells were seeded in 96-well plates at a density of 0.1 × 10^6/mL, incubated for 24 h at 37 °C (5% CO2), and treated with ten concentrations of the compounds ranging from 3.9 to 1000 μM in twofold serial dilutions. After 72 h, the MTT-dye (#M5655-1G, Merck (Sigma-Aldrich), Germany) was added to each sample at a final concentration of 0.05 mg/mL and the plates were incubated for 2 h at 37 °C (5% CO2). The supernatant was aspirated, and the formazan crystals formed as a product of the enzymatic MTT reduction were dissolved in 2-propranol (#33539, Merck (Sigma-Aldrich), Germany) supplemented with 5% formic acid (#300415, […]/Neuber, Sofia, Bulgaria). The absorbance of the product was measured at 550 nm (reference filter 690 nm) on an ELISA Reader BioTek ELx800 (BioTek). The experiments for evaluation of the BRAF inhibition and cytotoxicity were performed in triplicate. The IC50 values were calculated by the BfROpenLab's non-linear regression nodes in the KNIME analytics platform with the constant slope model.
(In general: Formazan colour is commonly taken as a measure of viable cells.)

For assay [2], the system named is A-431 skin epidermoid carcinoma cells. Kind of assay: MTT cytotoxicity assay, A-431. In kind it is cell-based. As to conditions: Homo sapiens, 72 h, read-out: IC50 (95% Confidence Interval), A-431. As to the method: as §1
Assay [3] relates to HaCaT non-tumorigenic human keratinocytes. Kind of assay: MTT cytotoxicity assay, HaCaT. The assay is classed as cell-based. As to conditions: 72 h, read-out: IC50 (95% Confidence Interval), HaCaT. As to the method:
as §1

Assay [4] relates to Hedgehog signaling pathway in NIH3T3 Shh-Light II cells. Kind of assay: HH-dependent (Gli-responsive) luciferase reporter assay. The assay is classed as cell-based. As to conditions: SAG 200 nM, 48 h; for HH inhibitory activity (in words): maximum concentration of 30 μM. As to the method:
The luciferase assay was carried out in NIH3T3 Shh-Light II cells, stably incorporating a Gli-responsive luciferase reporter and the pRL-TK Renilla, treated with SAG (SMO Agonist, 200 nM, Alexis Biochemicals Farmingdale, NY, USA) and the selected compounds for 48 h. Luciferases activities from P. pyralisand and R. reniformis were assayed with a dual-luciferase assay system, according to the manufacturer’s instructions (Biotium Inc., Hayward, CA, USA). The results were expressed as a P. pyralisand/R. reniformis luciferase ratio and represent the mean ± S.D. of three experiments, each performed in triplicate.
With respect to the SMO receptor, the HH inhibitory activity of the compounds, alone and in a racemate, was investigated in a luciferase reporter assay, which is widely used for characterizing HH inhibitors. The HH inhibitory activity of synthesized molecules was evaluated in NIH3T3 Shh Light II cells, stably incorporating a Gli-responsive firefly luciferase treated with the synthetic SMO agonist SAG [32], alone and in combination with the tested compounds.
A general note: In a reporter assay the amount or activity of a reporter protein is the signal.

For assay [5], the target named is T2, Human Myc-DDK-tagged SMO in HEK293T cells (Homo sapiens, UniProt Q99835).
T2 construct: Myc; DDK (FLAG); expressed in transfected cells; host or cells: HEK293T
T2 sequence (Q99835 28-787): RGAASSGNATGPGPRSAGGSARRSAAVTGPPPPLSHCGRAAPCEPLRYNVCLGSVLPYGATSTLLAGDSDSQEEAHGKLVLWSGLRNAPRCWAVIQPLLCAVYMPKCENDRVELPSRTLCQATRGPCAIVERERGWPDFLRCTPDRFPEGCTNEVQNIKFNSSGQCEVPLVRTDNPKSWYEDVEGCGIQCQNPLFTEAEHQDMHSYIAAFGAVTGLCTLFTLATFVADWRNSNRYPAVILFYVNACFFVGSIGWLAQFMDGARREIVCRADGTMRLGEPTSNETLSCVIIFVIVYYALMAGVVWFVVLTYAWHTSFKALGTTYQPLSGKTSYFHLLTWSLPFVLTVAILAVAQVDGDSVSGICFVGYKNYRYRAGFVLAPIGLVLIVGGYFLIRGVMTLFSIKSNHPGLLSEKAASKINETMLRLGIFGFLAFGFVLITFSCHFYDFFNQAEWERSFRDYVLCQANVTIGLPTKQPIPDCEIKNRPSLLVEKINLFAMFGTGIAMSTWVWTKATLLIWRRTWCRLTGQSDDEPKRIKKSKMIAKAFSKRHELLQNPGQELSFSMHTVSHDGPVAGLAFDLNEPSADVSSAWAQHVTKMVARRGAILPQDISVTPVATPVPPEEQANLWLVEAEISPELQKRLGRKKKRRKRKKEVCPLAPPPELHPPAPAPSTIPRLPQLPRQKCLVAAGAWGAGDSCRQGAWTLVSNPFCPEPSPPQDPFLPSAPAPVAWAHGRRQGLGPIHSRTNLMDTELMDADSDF
Kind of assay: BODIPY-Cyclopamine binding (displacement) assay. The conditions noted are these: BC 5 nM, 2 h at 37 °C. As to the method:
Human Myc-DDK-tagged SMO or empty vector was transfected in HEK293T cells. Cells were washed in phosphate-buffered saline (PBS) supplemented with 0.5% fetal bovine serum, fixed in 4% paraformaldehyde in PBS for 10 min, and incubated for 2 h at 37 °C, both in the same medium supplemented with BODIPY-Cyclopamine (BioVision Inc., San Francisco, CA, USA) (BC, 5 nM) and the studied compounds. The cells were permeabilized with Triton X100 (Sigma-Aldrich, St. Louis, MO, USA) 0.2%, and Hoechst reagent was used for cell nuclei staining. Data were expressed as a percentage of BC incorporation observed with BC alone.
To further investigate the binding properties of the selected compounds to the SMO receptor, we performed a displacement assay based on the use of BODIPY-Cyclopamine, which is known to interact with the binding site of SMO antagonists located within the heptahelical bundle of the receptor. To this aim, HEK293T cells were transiently transfected for expression of SMO and then incubated with BC in the presence or absence of increased amounts of DHSilA or DHSilAB.

T1 sequence (P15056 whole entry V600E): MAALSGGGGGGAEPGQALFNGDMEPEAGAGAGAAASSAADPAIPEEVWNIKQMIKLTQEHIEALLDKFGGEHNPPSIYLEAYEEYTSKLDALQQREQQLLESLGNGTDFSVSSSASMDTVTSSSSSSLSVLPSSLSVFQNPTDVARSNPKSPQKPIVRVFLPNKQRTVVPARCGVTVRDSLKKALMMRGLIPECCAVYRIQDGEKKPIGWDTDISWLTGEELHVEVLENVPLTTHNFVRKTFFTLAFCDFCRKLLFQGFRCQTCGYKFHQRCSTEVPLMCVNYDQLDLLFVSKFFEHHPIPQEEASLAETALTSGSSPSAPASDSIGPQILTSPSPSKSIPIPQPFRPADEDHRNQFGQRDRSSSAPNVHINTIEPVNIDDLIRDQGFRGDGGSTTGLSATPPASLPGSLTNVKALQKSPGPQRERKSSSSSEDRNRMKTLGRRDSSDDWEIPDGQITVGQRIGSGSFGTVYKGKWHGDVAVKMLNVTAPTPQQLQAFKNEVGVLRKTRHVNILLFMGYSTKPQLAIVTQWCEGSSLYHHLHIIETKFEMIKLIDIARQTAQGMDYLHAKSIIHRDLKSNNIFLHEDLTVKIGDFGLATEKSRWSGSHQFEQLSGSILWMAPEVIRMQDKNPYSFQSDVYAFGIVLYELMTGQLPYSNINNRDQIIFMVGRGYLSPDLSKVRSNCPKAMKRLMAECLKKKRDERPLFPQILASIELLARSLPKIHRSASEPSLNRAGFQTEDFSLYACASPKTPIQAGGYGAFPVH

Usually IC50 stands for the point on the concentration scale where inhibition reaches its midpoint. For the compound `COc1cc([C@@H]2Oc3cc(-c4oc5cc(O)cc(O)c5c(=O)c4O)ccc3O[C@H]2CO)ccc1O` [DHSilB, 2,3-dehydrosilybin B], the IC50 at BRAF V600E kinase is 24.9 µM; in assay [1], 86 µM; in assay [2], 130 µM; in assay [3], 164 µM. In assay [4], the “HH inhibitory activity (in words)” value was “inactive”.
Taken in the same sequence, the figures for `COc1cc([C@@H]2Oc3cc([C@H]4Oc5cc(O)cc(O)c5C(=O)[C@@H]4O)ccc3O[C@H]2CO)ccc1O` [SilB, silybin B] were 73.9 µM, 120 µM, 166 µM, 150 µM and “mild activity”.
Taken in the same sequence, the figures for `COc1cc([C@H]2Oc3cc([C@H]4Oc5cc(O)cc(O)c5C(=O)[C@@H]4O)ccc3O[C@@H]2CO)ccc1O` [SilA, silybin A] were 104 µM, 97 µM, 126 µM, 120 µM and “mild activity”.
As to `COc1cc([C@H]2Oc3cc(-c4oc5cc(O)cc(O)c5c(=O)c4O)ccc3O[C@@H]2CO)ccc1O` [DHSilA, 2,3-dehydrosilybin A], the IC50 on BRAF V600E kinase is 70.6 µM; in assay [1], 83 µM; in assay [2], 97 µM; in assay [3], 231 µM; in assay [4] (read-out: IC50, HH inhibitory activity), 5 to 10 µM. For the same compound, the “HH inhibitory activity (in words)” value in assay [4] is “high activity”. In addition, the “Inhibition of BODIPY-Cyclopamine (BC) binding to cells expressing SMO” value in assay [5] is reported as “inhibited BC binding to cells expressing SMO in a dose-dependent manner”.
